According to US20250059182A1, “SOS1 INHIBITORS” (Mirati Therapeutics, Inc., priority 2021, published 2025):

Experiments:
[1] = target: T1, recombinant human SOS1 polypeptide (amino acids 560-1049) (Homo sapiens, UniProt Q07889); experiment: HTRF displacement assay: inhibition of labeled tracer binding to SOS1; details: Table A, Morrison equation for competitive binding
T1 construct: corresponding to amino acids 560-1049, expressed in E. Coli; made in house; host or cells: E. coli
T1 sequence (Q07889 560-1049): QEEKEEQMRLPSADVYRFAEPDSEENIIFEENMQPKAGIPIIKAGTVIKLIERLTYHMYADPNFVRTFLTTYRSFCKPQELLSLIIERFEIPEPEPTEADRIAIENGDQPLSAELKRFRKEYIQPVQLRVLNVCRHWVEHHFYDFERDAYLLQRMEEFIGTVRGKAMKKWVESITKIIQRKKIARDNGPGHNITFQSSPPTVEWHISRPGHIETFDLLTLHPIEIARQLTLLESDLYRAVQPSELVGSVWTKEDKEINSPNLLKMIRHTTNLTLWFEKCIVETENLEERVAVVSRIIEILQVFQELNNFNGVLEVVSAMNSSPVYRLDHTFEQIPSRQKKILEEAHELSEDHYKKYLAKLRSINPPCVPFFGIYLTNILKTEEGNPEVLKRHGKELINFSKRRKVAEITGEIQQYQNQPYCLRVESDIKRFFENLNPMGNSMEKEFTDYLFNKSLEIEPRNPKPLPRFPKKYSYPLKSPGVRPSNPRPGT

[2] = tested on: pERK in MKN1 cells; experiment: pERK inhibition, In-Cell Western (LI-COR Odyssey), MKN1 cells; type: cell-based; details: Homo sapiens, MKN-1, Table B; MKN1 or H358 cells (table does not say which); 0.5-1 hour incubation; read-out: IC50 (nM), pERK inhibition
Summary of the method: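 MKN1 cells were exposed for about 0.5–1 h at 37 °C to nine 3-fold dilutions starting at 10 µM. Cells were then fixed in formaldehyde, permeabilised with methanol, and immunostained for pERK and GAPDH with near-infrared secondary antibodies. GAPDH-normalised pERK signal relative to vehicle gave % inhibition, from which IC50 was fitted.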

| SMILES | Ki [1] | IC50 [2] |
| --- | --- | --- |
| Cc1c(C#N)cccc1[C@@H](C)Nc1nnc(C)c2cnc(N3CCN(C(=O)[C@H]4CCN(C)C4)CC3)cc12 [Example 2-6, 2-methyl-3-((R)-1-((4-methyl-7-(4-((S)-1-methylpyrrolidine-3-carbonyl)piperazin-1-yl)pyrido[3,4-d]pyridazin-1-yl)amino)ethyl)benzonitrile] | 0.481 nM | 869 nM |
| Cc1c(C#N)cccc1[C@@H](C)Nc1nnc(C)c2cnc(N3CCN(C(=O)[C@@H]4CCCCN4C)CC3)cc12 [Example 2-7, 2-methyl-3-((R)-1-((4-methyl-7-(4-((S)-1-methylpiperidine-2-carbonyl)piperazin-1-yl)pyrido[3,4-d]pyridazin-1-yl)amino)ethyl)benzonitrile] | 0.545 nM | 139 nM |
| Cc1c(C#N)cccc1[C@@H](C)Nc1nnc(C)c2cnc(N3CCN(C(=O)[C@H]4CCCCN4C)CC3)cc12 [Example 2-8, 2-methyl-3-((R)-1-((4-methyl-7-(4-((R)-1-methylpiperidine-2-carbonyl)piperazin-1-yl)pyrido[3,4-d]pyridazin-1-yl)amino)ethyl)benzonitrile] | 0.67 nM | 211 nM |
| Cc1c(C#N)cccc1[C@@H](C)Nc1nnc(C)c2cnc(-c3ccc(CN(C)C)cc3)cc12 [Example 3-1, (R)-3-(1-((7-(4-((dimethylamino)methyl)phenyl)-4-methylpyrido[3,4-d]pyridazin-1-yl)amino)ethyl)-2-methylbenzonitrile] | 6.11 nM | 192 nM |
| Cc1c(C#N)cccc1[C@@H](C)Nc1nnc(C)c2cnc(C3=CCN(C)CC3)cc12 [Example 3-2, (R)-2-methyl-3-(1-((4-methyl-7-(1-methyl-1,2,3,6-tetrahydropyridin-4-yl)pyrido[3,4-d]pyridazin-1-yl)amino)ethyl)benzonitrile] | 11.5 nM | 124 nM |
| CCN1CCN(c2cc3c(N[C@H](C)c4cccc(C#N)c4C)nnc(C)c3cc2F)CC1 [Example 4-1, (R)-3-(1-((7-(4-ethylpiperazin-1-yl)-6-fluoro-4-methylphthalazin-1-yl)amino)ethyl)-2-methylbenzonitrile] | 1.73 nM | 82.7 nM |
| Cc1c(C#N)cccc1[C@@H](C)Nc1nnc(C)c2cc(F)c(N3CC4(COC4)C3)cc12 [Example 4-2, (R)-3-(1-((6-fluoro-4-methyl-7-(2-oxa-6-azaspiro[3.3]heptan-6-yl)phthalazin-1-yl)amino)ethyl)-2-methylbenzonitrile] | 5.85 nM | 64 nM |
| Cc1c(C#N)cccc1[C@@H](C)Nc1nnc(C)c2cc(F)c(N(C)C3CCN(C)CC3)cc12 [Example 4-3, (R)-3-(1-((6-fluoro-4-methyl-7-(methyl(1-methylpiperidin-4-yl)amino)phthalazin-1-yl)amino)ethyl)-2-methylbenzonitrile] | 3.34 nM | 150 nM |
| Cc1c(C#N)cccc1[C@@H](C)Nc1nnc(C)c2cc(F)c(N3CCC34CN(C)C4)cc12 [Example 4-4, (R)-3-(1-((6-fluoro-4-methyl-7-(6-methyl-1,6-diazaspiro[3.3]heptan-1-yl)phthalazin-1-yl)amino)ethyl)-2-methylbenzonitrile] | 0.892 nM | 39.6 nM |
| Cc1nnc(N[C@H](C)c2cccc(C(F)(F)F)c2F)c2cc(N3CCC34CN(C)C4)c(F)cc12 [Example 4-5, (R)-6-fluoro-N-(1-(2-fluoro-3-(trifluoromethyl)phenyl)ethyl)-4-methyl-7-(6-methyl-1,6-diazaspiro[3.3]heptan-1-yl)phthalazin-1-amine] | 0.585 nM | 103 nM |
| Cc1nnc(N[C@H](C)c2cccc(C(F)(F)F)c2F)c2cc(N3CCOCC3)c(F)cc12 [Example 4-6, (R)-6-fluoro-N-(1-(2-fluoro-3-(trifluoromethyl)phenyl)ethyl)-4-methyl-7-morpholinophthalazin-1-amine] | 12.3 nM | 176 nM |
